Source: patent US20160090555A1, “CLEANING AND/OR TREATMENT COMPOSITIONS COMPRISING MALODOR REDUCTION COMPOSITIONS” (The Procter & Gamble Company, priority 2014, published 2016)

Tests used:
[1] = Blocker Index (BI), expert graders, isovaleric acid malodorous swatch; design: key: Blocker Index, 0–3 scale anchored by reference swatches (0 = clean swatch)
Text: Blocker materials suitable for use in cleaning and/or treatment compositions of the present invention are chosen for their ability to decrease malodor, while not interfering with perception of a fragrance. Material selection is done by assigning two indices to a test sample material from two reference scales in order to rank odor strengths. The two reference scales are the Fragrance Fidelity Index (FFI) scale and the Blocker Index (BI) scale. The FFI ranks the ability of the test sample material to impart a perceivable odor which could cause interference when combined with another fragrance and the BI ranks the ability of the test sample material to reduce malodor perception. The two methods for assigning the indices to a test sample on the FFI and the BI reference scales are given below.
The first step in the method for assigning a BI to a test sample material on the BI reference scale is to create the BI reference swatches. […] Fabric swatches for this test are white knit polycotton (4 inch×4 inch) swatches from EMC ordered as PC 50/50. The supplier is instructed to strip the swatches first, stripping involves washing twice with a fragrance-free detergent and rinsing three times.
The BI scale contains one clean swatch with no malodor applied. […] These solutions are pipetted to the middle of the swatches. […] After drying for 30 minutes in a vented hood, the swatches are wrapped in aluminum foil to prevent odor contamination to the treated swatch. A clean untreated swatch is also included as the lowest anchor point of reference for malodor strength on the BI scale. The BI reference scale swatches should be used within 0.5 to 12 hours and discarded after 12 hours. The swatches are used as scale anchor points when graders evaluate a test sample(s) and are assigned a Blocker Index (BI) as show in Table 12.
The perfumer/expert grader is asked to rank order swatches according to a scale between 0 and 3.
The reference swatches represent the 0, 1, 2, and 3 BIs on the BI reference scale, Table 12. The expert grader should familiarizes him/herself with the strength of the odor on the BI reference swatches by sniffing each one starting at 0 (the lowest odor strength) and ending at 3 (the highest odor strength). This should be done prior to evaluating the swatch treated with the test material.
To evaluate the BI, the test material is applied to a malodorous swatch to determine how well the test material blocks the malodor. […] After drying the malodorous swatch a known concentration of test material solution, between 1 ppm and 100 ppm is pipetted onto the malodorous swatch. […] It is sometimes necessary to evaluate several levels of the test material between about 1 and about 100 ppm to determine the BI.
At least two perfumers/expert graders are used to assign the BI to the test sample. […] The test sample swatch is assigned a BI at or between numbers on the BI in table.

[2] = Fragrance Fidelity Index (FFI), expert graders, treated fabric swatch against ethyl vanillin reference scale
Text: Blocker materials suitable for use in cleaning and/or treatment compositions of the present invention are chosen for their ability to decrease malodor, while not interfering with perception of a fragrance. Material selection is done by assigning two indices to a test sample material from two reference scales in order to rank odor strengths. The two reference scales are the Fragrance Fidelity Index (FFI) scale and the Blocker Index (BI) scale. The FFI ranks the ability of the test sample material to impart a perceivable odor which could cause interference when combined with another fragrance and the BI ranks the ability of the test sample material to reduce malodor perception. The two methods for assigning the indices to a test sample on the FFI and the BI reference scales are given below. The first step in the method for assigning an FFI to the test samples on the FFI reference scale is to create the FFI reference swatches. […] Fabric swatches for this test are white knit polycotton (4 inch×4 inch) swatches from EMC ordered as PC 50/50. The supplier is instructed to strip the swatches first, stripping involves washing twice with a fragrance-free detergent and rinsing three times. […] This will create a sensory scale of three swatches with three different odor levels based on the concentration of the solution pipetted onto the swatch. […] A clean untreated swatch is also included as the lowest anchor point of reference for odor strength on the FFI scale. […] The swatches are used as scale anchor points when graders evaluate a test sample(s) and are assigned a Fragrance Fidelity Index (FFI) as show in Table 7. […] This should be done prior to evaluating the test sample material treated swatch. […] At least two perfumers/expert graders are used to assign an FFI grade to a test sample.

[3] = test material at 10 ppm on isovaleric acid malodorous swatch
[4] = test material at 50 ppm on isovaleric acid malodorous swatch

Row | SMILES | BI ([1]; Conc 10 ppm) | BI ([1]; Conc 50 ppm) | FFI ([2]; Conc 50 ppm) | BI [1, 3] | BI [1, 4] | FFI ([2]; Conc 10 ppm) | BI grade of reference swatch, Ave ([1]; 2 μL 0.08% isovaleric acid, all graders (Table 10))
1 | CCCCCCCCCCCCCCCC(=O)OC [Material 109] | 2.0 | – | – | – | – | – | –
2 | CCCCCCCCCCCCO [Material 174] | – | 2.3 | 0.5 | – | – | – | –
3 | C=CC(C)=CCC=C(C)C [Material 524] | – | 2.8 | 0 | – | – | – | –
4 | CCCCCCCCCCCO [Undecanol] | – | 2.3 | 0.8 | – | – | – | –
5 | CC1(C)CCc2ccc(CCC=O)cc21 | – | – | – | 1.5 | 2.7 | – | –
6 | O=C1CCC2CCCCC2O1 (centres unmarked) [3,4,4a,5,6,7,8,8a-octahydrochromen-2-one] | 2.0 | 2.0 | 0 | – | – | 0 | –
7 | C=C1CCC2OC2(C)CCC2C1CC2(C)C (centres unmarked) [Material 1148] | – | 2.3 | 0.5 | – | – | – | –
8 | CCC(=O)OC1CC2C3C=CCC3C1C2(C)C (centres unmarked) [8,8-dimethyl-3a,4,5,6,7,7a-hexahydro-1H-4,7-methanoinden-6-yl propionate] | – | – | – | 1.5 | 2.2 | – | –
9 | CC1(C)C2CCC3(C2)C1C(=O)CCC3(C)C (centres unmarked) [Material 1149] | 1.5 | 2.3 | 0.8 | – | – | 0 | –
10 | CCCCCCCCCCCC(=O)OCC [Material 391] | – | 2.2 | 0.3 | – | – | – | –
11 | CC1(C)CCc2ccc(CCC=O)cc21 [Material 261] | 1.8 | 1.3 | 1.3 | – | – | 0 | –
12 | CCC(O)COC1CCCCC1C(C)(C)C (centres unmarked) [Material 677] | 2.3 | 2.0 | 1.8 | – | – | 0 | –
13 | CC(C)(C)C1CCCCC1 [4-tert-butyl cyclohexane] | 2.0 | 2.0 | 0.3 | – | – | 0 | –
14 | CC(CCO)CCc1ccccc1 (centres unmarked) [Material 962] | 2.3 | 1.7 | 0.5 | – | – | 0 | –
15 | CC(=O)OC1CC2CC1C1CC=CC21 (centres unmarked) [Material 281] | 2.0 | 2.0 | 0.5 | – | – | 0 | –
16 | CC(=O)OCCCCCCC(C)C [Material 204] | 2.0 | 2.7 | 0 | – | – | 0 | –
17 | COC(=O)OC1CC/C=C\CCC1 (centres unmarked) [Material 1139] | 2.0 | 2.7 | 1.0 | – | – | 0 | –
18 | CCOC(=O)OC1C(C)CCC(C)C1C (centres unmarked) [Material 1005] | – | 2.6 | 0.5 | – | – | – | –
19 | CC(C)CC(=O)O [isovaleric acid, reference compound] | – | – | – | – | – | – | 1.0
20 | CC1CCC2(C(C)C)CC(C)OC2C1 (centres unmarked) | – | – | – | 2.0 | 2.2 | – | –
